Measurements published in PubChem BioAssay (NCI).
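Interpolation was linear, between the two tested concentrations surrounding the appropriate level; five concentrations were tested over 48 hours in 96-well plates. Definition used: TGI = concentration required for complete inhibition of growth.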

Legend:
Assay in all cases: NCI-60 cell line screen, 48 h
[1] = tested on: OVCAR-5 ovarian
[2] = tested on: SK-MEL-28 melanoma
[3] = tested on: A498 renal
[4] = tested on: HOP-92 NSCLC
[5] = tested on: MDA-N
[6] = tested on: CCRF-CEM leukemia
[7] = tested on: SF-268 CNS
[8] = tested on: SNB-19 CNS
[9] = tested on: SW-620 colon
[10] = tested on: UACC-257 melanoma
[11] = tested on: U251 CNS
[12] = tested on: NCI-H460 lung
[13] = tested on: OVCAR-8 ovarian
[14] = tested on: NCI/ADR-RES ovarian
[15] = tested on: ACHN renal
[16] = tested on: SK-MEL-5 melanoma
[17] = tested on: MALME-3M melanoma
[18] = tested on: SR leukemia
[19] = tested on: DU-145 prostate
[20] = tested on: SN12C renal
[21] = tested on: HCC-2998 colon
[22] = tested on: OVCAR-3 ovarian
[23] = tested on: UO-31 renal
[24] = tested on: IGROV1 ovarian
[25] = tested on: SF-295 CNS
[26] = tested on: A549 NSCLC
[27] = tested on: SNB-75 CNS
[28] = tested on: MOLT-4 leukemia
[29] = tested on: 786-0 renal
[30] = tested on: PC-3 prostate
[31] = tested on: NCI-H23 lung
[32] = tested on: LOX IMVI melanoma
[33] = tested on: K-562 leukemia
[34] = tested on: TK-10 renal
[35] = tested on: MDA-MB-435
[36] = tested on: HCT-15 colon
[37] = tested on: HT29 colon
[38] = tested on: M14 melanoma
[39] = tested on: RXF 393 renal
[40] = tested on: OVCAR-4 ovarian
[41] = tested on: HS 578T breast
[42] = tested on: RPMI-8226 leukemia
[43] = tested on: EKVX NSCLC
[44] = tested on: HL-60(TB) leukemia
[45] = tested on: BT-549 breast
[46] = tested on: HOP-62 NSCLC
[47] = tested on: MDA-MB-231 breast
[48] = tested on: KM12 colon
[49] = tested on: NCI-H522 lung
[50] = tested on: HCT-116 colon
[51] = tested on: UACC-62 melanoma
[52] = tested on: MCF7 breast
[53] = tested on: NCI-H226 lung
[54] = tested on: SF-539 CNS
[55] = tested on: CAKI-1 renal
[56] = tested on: SK-OV-3 ovarian
[57] = tested on: SK-MEL-2 melanoma
[58] = tested on: T-47D breast
[59] = tested on: COLO 205 colon

Measured: TGI

CN1CC[C@@]2(c3cccc(O)c3)CC(=O)/C(=C/c3ccc(Cl)c(Cl)c3)[C@H]1C2
8.47 µM: [28]
15.9 µM: [31]
5.53 µM: [16]
2.72 µM: [37]
21 µM: [43]
5.92 µM: [18]
27 µM: [34]
2.81 µM: [32]
26.5 µM: [3]
4.07 µM: [22]
10.1 µM: [13]
2.8 µM: [35]
5.62 µM: [39]
3.82 µM: [44]
5.65 µM: [24]
18.1 µM: [4]
5.02 µM: [38]
3.89 µM: [20]
13.1 µM: [17]
4.33 µM: [23] | [45]
11.5 µM: [26]
7.09 µM: [14]
14.4 µM: [1]
4.37 µM: [42]
3.66 µM: [33]
7.01 µM: [7]
3.38 µM: [15]
3.06 µM: [9]
4.65 µM: [2]
3.37 µM: [21]
> 100 µM: [6]
6.2 µM: [46]
3.86 µM: [25]
2.67 µM: [11]
2.63 µM: [27]
16.4 µM: [19]
4.72 µM: [12]
12.6 µM: [10]
3.77 µM: [5] | [36]
17.2 µM: [40]
12.5 µM: [8]
7.19 µM: [41]
3.07 µM: [29] | [30]

CC(C)(C)C1CC[C@H](O)[C@H]([C@@H](O)CC2CC(=O)N(c3ccccc3)C(=O)C2)C1 (stereo not given in full)
77.5 µM: [44]
74.9 µM: [51]
not listed: [56] | [57] | [58] | [59]
> 100 µM: all other assays above

C=CCNC(=S)NC=C(C(N)=O)C(N)=O
89.2 µM: [3]
not listed: [4] | [34] | [45]
> 100 µM: all other assays above

N=c1oc2ccccc2cc1C(=O)Nc1ccccn1
54 µM: [17]
not listed: [23] | [25] | [30] | [34] | [49] | [52]
> 100 µM: all other assays above
